Assay results taken from ChEMBL document CHEMBL4825684, “Design, synthesis and biological evaluation of N-anthraniloyl tryptamine derivatives as pleiotropic molecules for the therapy of malignant glioma” (Eur J Med Chem, 2021).
Activity calls are given as the source filed them. The calls are words filed in the database; no cut-off is given here.

How the values were obtained:
[1] = target: T1, Prostaglandin G/H synthase 2 (Homo sapiens, UniProt P35354); assay: Inhibition of human COX2 assessed as fluorescence by microplate reader
T1 sequence (P35354 whole entry): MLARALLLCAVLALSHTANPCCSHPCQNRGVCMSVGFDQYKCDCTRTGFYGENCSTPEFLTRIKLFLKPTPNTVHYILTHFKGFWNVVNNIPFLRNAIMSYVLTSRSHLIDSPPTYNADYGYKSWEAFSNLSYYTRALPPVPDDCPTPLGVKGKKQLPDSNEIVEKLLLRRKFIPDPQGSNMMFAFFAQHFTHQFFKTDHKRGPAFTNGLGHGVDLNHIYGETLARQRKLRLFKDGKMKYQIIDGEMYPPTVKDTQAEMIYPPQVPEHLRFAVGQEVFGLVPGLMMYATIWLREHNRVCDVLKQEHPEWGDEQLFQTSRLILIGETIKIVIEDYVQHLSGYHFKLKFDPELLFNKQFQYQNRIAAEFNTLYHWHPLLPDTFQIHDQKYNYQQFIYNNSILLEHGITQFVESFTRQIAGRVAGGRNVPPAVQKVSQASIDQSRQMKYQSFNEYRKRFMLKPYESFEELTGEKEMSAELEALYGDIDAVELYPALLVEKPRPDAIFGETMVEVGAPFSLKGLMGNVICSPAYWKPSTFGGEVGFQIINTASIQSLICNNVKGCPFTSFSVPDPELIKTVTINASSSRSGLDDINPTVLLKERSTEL

[2] = target: Signal transducer and activator of transcription 3 (Homo sapiens) (UniProt P40763); assay: Inhibition of STAT3 nuclear translocation in human U251 cells incubated for 24 hrs by Hoechst staining based fluorescence confocal imaging analysis; format: cell-based; conditions: U-251
Signal transducer and activator of transcription 3 (Homo sapiens), sequence (P40763 whole entry): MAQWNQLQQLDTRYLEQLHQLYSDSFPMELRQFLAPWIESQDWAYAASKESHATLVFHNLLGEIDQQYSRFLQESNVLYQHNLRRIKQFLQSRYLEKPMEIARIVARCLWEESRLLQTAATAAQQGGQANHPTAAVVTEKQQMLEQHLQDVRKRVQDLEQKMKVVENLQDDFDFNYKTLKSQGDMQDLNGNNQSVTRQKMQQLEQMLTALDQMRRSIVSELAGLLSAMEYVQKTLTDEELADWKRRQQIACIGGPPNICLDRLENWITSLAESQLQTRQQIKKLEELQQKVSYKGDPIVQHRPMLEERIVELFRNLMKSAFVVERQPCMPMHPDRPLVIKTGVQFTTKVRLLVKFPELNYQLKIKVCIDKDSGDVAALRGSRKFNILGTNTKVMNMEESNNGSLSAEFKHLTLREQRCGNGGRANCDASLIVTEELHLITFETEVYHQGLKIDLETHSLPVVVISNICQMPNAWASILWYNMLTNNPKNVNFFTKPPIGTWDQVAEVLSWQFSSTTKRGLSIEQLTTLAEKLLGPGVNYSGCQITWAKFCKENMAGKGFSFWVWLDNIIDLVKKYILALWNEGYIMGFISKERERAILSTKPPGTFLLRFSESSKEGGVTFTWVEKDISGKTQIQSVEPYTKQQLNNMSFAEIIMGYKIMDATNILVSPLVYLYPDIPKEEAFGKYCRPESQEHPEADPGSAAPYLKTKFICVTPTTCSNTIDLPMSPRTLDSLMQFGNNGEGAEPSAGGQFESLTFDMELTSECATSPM

[3] = target: Tyrosine-protein kinase JAK2 (Homo sapiens) (UniProt O60674); assay: Inhibition JAK2 phosphorylation in human U-251 cells incubated up to 8 hrs by Western blot analysis; format: cell-based; conditions: time hrs <=8
Tyrosine-protein kinase JAK2 (Homo sapiens), sequence (O60674 whole entry): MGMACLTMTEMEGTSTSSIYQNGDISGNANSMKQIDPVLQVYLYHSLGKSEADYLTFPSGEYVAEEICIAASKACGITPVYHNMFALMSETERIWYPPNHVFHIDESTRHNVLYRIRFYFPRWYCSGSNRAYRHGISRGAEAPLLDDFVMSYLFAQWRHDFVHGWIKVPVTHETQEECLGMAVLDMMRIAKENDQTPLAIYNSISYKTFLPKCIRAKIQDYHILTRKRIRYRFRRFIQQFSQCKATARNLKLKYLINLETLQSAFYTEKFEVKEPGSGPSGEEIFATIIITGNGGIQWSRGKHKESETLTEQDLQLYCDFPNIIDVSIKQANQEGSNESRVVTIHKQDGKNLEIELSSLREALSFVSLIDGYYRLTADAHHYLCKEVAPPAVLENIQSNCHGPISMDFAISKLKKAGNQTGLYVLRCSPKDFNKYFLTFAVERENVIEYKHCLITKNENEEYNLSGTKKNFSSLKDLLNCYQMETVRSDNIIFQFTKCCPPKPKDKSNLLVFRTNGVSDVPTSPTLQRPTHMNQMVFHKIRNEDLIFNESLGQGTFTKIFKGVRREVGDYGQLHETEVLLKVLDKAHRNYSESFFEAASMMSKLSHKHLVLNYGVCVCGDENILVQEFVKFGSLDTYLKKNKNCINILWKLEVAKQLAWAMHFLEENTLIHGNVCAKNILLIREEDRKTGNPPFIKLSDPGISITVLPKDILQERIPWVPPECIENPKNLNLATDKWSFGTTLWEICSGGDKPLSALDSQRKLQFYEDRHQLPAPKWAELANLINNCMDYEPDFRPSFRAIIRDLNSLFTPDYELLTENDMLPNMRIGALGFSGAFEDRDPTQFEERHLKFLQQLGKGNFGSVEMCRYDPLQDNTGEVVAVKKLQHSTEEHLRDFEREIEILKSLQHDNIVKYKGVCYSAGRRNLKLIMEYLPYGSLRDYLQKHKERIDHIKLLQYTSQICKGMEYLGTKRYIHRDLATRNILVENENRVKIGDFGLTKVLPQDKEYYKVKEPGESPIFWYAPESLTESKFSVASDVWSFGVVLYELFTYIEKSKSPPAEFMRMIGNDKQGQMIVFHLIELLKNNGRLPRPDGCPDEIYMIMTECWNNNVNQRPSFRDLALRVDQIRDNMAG

[4] = target: Tyrosine-protein kinase JAK2 (Homo sapiens) (UniProt O60674); assay: Inhibition JAK2 phosphorylation in human U-87 MG cells incubated up to 8 hrs by Western blot analysis; format: cell-based; conditions: time hrs <=8
[5] = target: Signal transducer and activator of transcription 3 (Homo sapiens) (UniProt P40763); assay: Inhibition STAT3 phosphorylation in human U-87 MG cells incubated up to 8 hrs by Western blot analysis; format: cell-based; conditions: time hrs <=8
[6] = system: U-87 MG; assay: Antiproliferative activity against human U-87 MG cells assessed as decrease in proliferation at 4 uM measured after 24 hrs by EdU assay relative to control; format: functional, cell-based; conditions: U-87MG ATCC
[7] = system: U-251; assay: Antiproliferative activity against human U-251 cells assessed as decrease in proliferation at 4 uM measured after 24 hrs by EdU assay relative to control; format: functional, cell-based
[8] = system: U-251; assay: Induction of apoptosis in human U-251 cells assessed as early apoptotic cells at 2 uM incubated for 48 hrs by […] double staining based flow cytometry assay (reference value: 0.73%); format: functional
[9] = system: U-251; assay: Induction of apoptosis in human U-251 cells assessed as late apoptotic cells at 2 uM incubated for 48 hrs by […] double staining based flow cytometry assay (reference value: 1.39%); format: functional
[10] = system: U-251; assay: Induction of apoptosis in human U-251 cells assessed as viable cells at 4 uM incubated for 48 hrs by […] double staining based flow cytometry assay (reference value: 96.6%); format: functional; conditions: read-out: Activity
[11] = system: U-251; assay: Induction of apoptosis in human U-251 cells assessed as early apoptotic cells at 4 uM incubated for 48 hrs by […] double staining based flow cytometry assay (reference value: 0.73%); format: functional
[12] = system: U-251; assay: Induction of apoptosis in human U-251 cells assessed as early apoptotic cells at 8 uM incubated for 48 hrs by […] double staining based flow cytometry assay (Rvb+B32 = 0.73%); format: functional
[13] = system: U-251; assay: Induction of apoptosis in human U-251 cells assessed as necrotic cells at 8 uM incubated for 48 hrs by […] double staining based flow cytometry assay (reference value: 1.32%); format: functional
[14] = system: U-87 MG; assay: Induction of apoptosis in human U-87 MG cells assessed as viable cells at 2 uM incubated for 48 hrs by Annexin VIM double staining based flow cytometry assay (reference value: 97.8%); format: functional, U-87MG ATCC; conditions: read-out: Activity
[15] = system: U-87 MG; assay: Induction of apoptosis in human U-87 MG cells assessed as early apoptotic cells at 2 uM incubated for 48 hrs by […] double staining based flow cytometry assay (reference value: 0.63%); format: functional, U-87MG ATCC
[16] = system: U-87 MG; assay: Induction of apoptosis in human U-87 MG cells assessed as necrotic cells at 2 uM incubated for 48 hrs by […] double staining based flow cytometry assay (reference value: 0.91%); format: functional, U-87MG ATCC
[17] = system: U-87 MG; assay: Induction of apoptosis in human U-87 MG cells assessed as viable cells at 4 uM incubated for 48 hrs by Annexin VIM double staining based flow cytometry assay (reference value: 97.8%); format: functional, U-87MG ATCC; conditions: read-out: Activity
[18] = system: U-87 MG; assay: Induction of apoptosis in human U-87 MG cells assessed as necrotic cells at 4 uM incubated for 48 hrs by Annexin VIM double staining based flow cytometry assay (reference value: 0.91%); format: functional, U-87MG ATCC
[19] = system: U-87 MG; assay: Induction of apoptosis in human U-87 MG cells assessed as viable cells at 8 uM incubated for 48 hrs by Annexin VIM double staining based flow cytometry assay (reference value: 97.8%); format: functional, U-87MG ATCC; conditions: read-out: Activity
[20] = system: U-87 MG; assay: Induction of apoptosis in human U-87 MG cells assessed as necrotic cells at 8 uM incubated for 48 hrs by Annexin VIM double staining based flow cytometry assay (reference value: 0.91%); format: functional, U-87MG ATCC
[21] = system: U-251; assay: Induction of apoptosis in human U-251 cells assessed as decrease in Bcl2/Bax ratio at 2 to 4 uM incubated for 48 hrs by Western blot analysis relative to control; format: functional, cell-based; conditions: dose 2-4 µM
[22] = system: U-251; assay: Induction of apoptosis in human U-251 cells assessed as increase in cytochrome c release at 1 to 4 uM incubated for 48 hrs by Western blot analysis relative to control; format: functional, cell-based; conditions: dose 1-4 µM
[23] = system: U-251; assay: Reduction in MMP9 expression in human U-251 cells incubated for 24 hrs by Western blot analysis; format: functional, cell-based; conditions: dose 1-4 µM
[24] = Acute toxicity in Kunming mouse assessed behavioural changes at 1000 mg/kg, ip measured for 14 days; format: organism-based; conditions: in vivo, 336 h, time 14 day
[25] = Cmax in Sprague-Dawley rat at 60 mg/kg, ip measured up to 24 hrs by LC-MS analysis; format: ADME, organism-based; design: route intraperitoneal, dose 60 mg/kg, time <=24; conditions: in vivo
[26] = system: C6; assay: Antitumor activity against rat C6 cells inoculated orthotopic Sprague-Dawley rat model assessed as reduction tumor volume at 50 mg/kg, ip twice a day treated 3 days after tumor cell injection measured for 13 days after tumor implantation; format: functional, organism-based; conditions: time 3.0 day
[27] = system: C6; assay: Antitumor activity against rat C6 cells inoculated orthotopic Sprague-Dawley rat model assessed as decrease in VEGF-A in tumor tissue at 50 mg/kg, ip twice a day treated 3 days after tumor cell injection measured for 13 days after tumor implantation by Western blot analysis; format: functional, organism-based; conditions: time 3.0 day
[28] = system: C6; assay: Antitumor activity against rat C6 cells inoculated orthotopic Sprague-Dawley rat model assessed as tumor necrosis at 50 mg/kg, ip twice a day administered for 13 days of tumor implantation by hematoxylin-eosin staining analysis; format: functional, organism-based; conditions: time 13.0 day
[29] = system: C6; assay: Anxiolytic activity in rat C6 cells inoculated orthotopic Sprague-Dawley rat model assessed as suppression of MMP9 expression in tumor tissue at 50 mg/kg, ip twice a day administered for 13 days of tumor implantation by immunohistochemical staining analysis; format: functional, organism-based; conditions: time 13.0 day

In the case of `COc1cc(Nc2ccccc2C(=O)NCCc2c[nH]c3ccccc23)cc(OC)c1OC`, the IC50 [1] is reported as 8.29 µM, the inhibition [2] is reported as “Active” and the inhibition [3] is reported as “Active”. For the same molecule, the inhibition [4] was “Active”, the inhibition [5] was “Active” and the Activity [6] was “Active”. For the same molecule, the Activity [7] was “Active”, the Activity [8] was 4.93% and the Activity [9] was 17.4%. The viability at 4 µM [10] was 65.5%, the Activity [11] was 7.95% and the Activity [12] was 9.93%. For the same molecule, the Activity [13] was 7.24%, the viability at 2 µM [14] was 95.1% and the Activity [15] was 2.17%. The Activity [16] was 1.23%, the viability at 4 µM [17] was 88.5% and the Activity [18] was 1.86%. The viability at 8 µM [19] was 77.7%, the Activity [20] was 1.1% and the Activity [21] was “Active”. For the same molecule, the Activity [22] was “Active”, the Activity [23] was “Dose-Dependent Effect” and the Activity [24] was “Non-Toxic”. The Cmax [25] was 1150 ng/mL, the Activity [26] was “Active” and the Activity [27] was “Active”. The Activity [28] was “Active” and the Activity [29] was “Active”.
